Consider 1 compound from US11819491B2, “Dilutable formulations of cannabinoids and processes for their preparation” (Yissum Research Development Company of the Hebrew …, priority 2016, dated 2023).

This data set in a line: Stability of CBD in simulated gastric fluid (SGF). It counts as physicochemical. The following applies: 37° C. As to the method: A medium of stimulating gastric fluid (SGF) was prepared by dissolving sodium chloride (0.2 w/v %) and hydrochloric acid (0.1M) in DDW, and incubated at 37° C.
For MeOH solution sodium dodecyl sulfate (1 w/v %) was added to the SGF. 500 ml of SGF mediums was contained in an appropriate Erlenmeyer flask. At time 0-1 ml of each CBD stock solution was added to the SGF. The mixture was vigorously shaken at a water bath warmed to 37° C. and immediately 1 ml of the solution was sampled and replaced with an equal volume of preheated SGF medium. Similarly, same volume was sampled at 5, 10, 15, 20, 30, 45, 60, 75, 90, 120, 150 and 180 minutes. Each 1 mL sample was immediately neutralized to a pH of 7 to 9, with 980 μL of 0.1M sodium hydroxide solution and 3 ml MeOH, and pH levels were tested. All samples were kept at 4° C. until HPLC analysis.
For MeOH solution and AX1 system additional samples were taken every 30 min and injected directly into the HPLC without further treatment. […] The measured CBD concentration was divided to the initial concentration (C/C0) at each time point.
In comparison, the CBD profile in SGF with a commercial product (‘RSHO’™—containing CBD dissolved in vegetable oil) and CBD dissolved in pure olive oil were evaluated.

With `C=C(C)[C@@H]1CCC(C)=C[C@H]1c1c(O)cc(CCCCC)cc1O` [CBD in MeOH, cannabidiol], the “Start of CBD degradation” value is 5 min. Besides, the CBD left entry (after 2 hours) is recorded as “less than 4%”. Also, the “CBD degradation in SGF (in words)” value (up to 180 min) is on record as “significant degradation over time”. Besides, where the note is “within 30 min”, the CBD decomposed was 68%.
